Laboratory results as given in ChEMBL document CHEMBL1201862, “PubChem BioAssay data set” (2004).
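In this assay, cells in 96-well plates receive the compound at five concentrations for 48 hours. Endpoints are linearly interpolated between the surrounding concentrations. GI50: concentration for 50% inhibition of growth.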 Active and inactive are the calls of the source. No stated cut-off is given here; in the data, active = GI50 up to about 1.1 µM and inactive = higher.

Columns and labels:
Experiment in all cases: inhibition of tumour cell growth, NCI panel, 48 h
SR = system: SR
PC-3 = system: PC-3
A549 = system: A549
NCI-H23 = system: NCI-H23
A498 = system: A498
HT-29 = system: HT-29
SF-295 = system: SF-295
SF-268 = system: SF-268
RXF 393 = system: RXF 393
HCC 2998 = system: HCC 2998
MCF7 = system: MCF7
COLO 205 = system: COLO 205
SNB-19 = system: SNB-19
OVCAR-4 = system: OVCAR-4
OVCAR-5 = system: OVCAR-5
LOX IMVI = system: LOX IMVI
ACHN = system: ACHN
HCT-15 = system: HCT-15
HOP-62 = system: HOP-62
HCT-116 = system: HCT-116

SMILES | GI50 (SR) | GI50 (PC-3) | GI50 (A549) | GI50 (NCI-H23) | GI50 (A498) | GI50 (HT-29) | GI50 (SF-295) | GI50 (SF-268) | GI50 (RXF 393) | GI50 (HCC 2998) | GI50 (MCF7) | GI50 (COLO 205) | GI50 (SNB-19) | GI50 (OVCAR-4) | GI50 (OVCAR-5) | GI50 (LOX IMVI) | GI50 (ACHN) | GI50 (HCT-15) [µM] | GI50 (HOP-62) | GI50 (HCT-116)
N#C/C(=C\c1ccc([N+](=O)[O-])o1)c1n[nH]c(Cc2ccccc2)n1 | 0.173 µM (active) | 2.45 µM (inactive) | 2.56 µM (inactive) | 1.21 µM (inactive) | 6.32 µM (inactive) | 1.05 µM (active) | 7.26 µM (inactive) | 0.641 µM (active) | 0.423 µM (active) | 1.63 µM (inactive) | 2.28 µM (inactive) | 1.23 µM (inactive) | 4.93 µM (inactive) | 1.82 µM (inactive) | 1.64 µM (inactive) | 1.07 µM (active) | 1.78 µM (inactive) | 0.281 | 2.62 µM (inactive) | 0.232 µM (active)
CC(=O)O[C@H]1CC[C@@]2(C)C(=CC[C@H]3[C@@H]4C/C(=C\c5ccncc5)[C@H](OC(C)=O)[C@@]4(C)CC[C@@H]32)C1 | 2.7 µM (inactive) | 18.2 µM (inactive) | 6.08 µM (inactive) | 4.56 µM (inactive) | 12.9 µM (inactive) | 6.41 µM (inactive) | 5.02 µM (inactive) | 10.9 µM (inactive) | 2.73 µM (inactive) | 13.1 µM (inactive) | 14.7 µM (inactive) | 4.08 µM (inactive) | 8.61 µM (inactive) | 4.65 µM (inactive) | 16.9 µM (inactive) | 3.48 µM (inactive) | 15.1 µM (inactive) | 3.45 | 4.54 µM (inactive) | 11.9 µM (inactive)
N/C(=N\c1cccc(Cl)c1)c1ccccc1N | > 100 µM (inactive) | > 100 µM (inactive) | > 100 µM (inactive) | > 100 µM (inactive) | > 100 µM (inactive) | > 100 µM (inactive) | > 100 µM (inactive) | > 100 µM (inactive) | > 100 µM (inactive) | > 100 µM (inactive) | > 100 µM (inactive) | > 100 µM (inactive) | > 100 µM (inactive) | > 100 µM (inactive) | > 100 µM (inactive) | > 100 µM (inactive) | > 100 µM (inactive) | > 100 | > 100 µM (inactive) | > 100 µM (inactive)
C=C1C(=O)OC2C1C(OC(=O)/C(C)=C/C)CC(O)(CCl)C1C(O)C3OC3(C)C21O (stereo not given) | 17 µM (inactive) | > 50 µM (inactive) | > 50 µM (inactive) | 34.5 µM (inactive) | > 50 µM (inactive) | 36.9 µM (inactive) | > 50 µM (inactive) | > 50 µM (inactive) | 9.77 µM (inactive) | > 50 µM (inactive) | 18.2 µM (inactive) | 13.3 µM (inactive) | > 50 µM (inactive) | > 50 µM (inactive) | > 50 µM (inactive) | 18.9 µM (inactive) | 19.9 µM (inactive) | 17.1 | > 50 µM (inactive) | 10.8 µM (inactive)
O=C(Nc1nc(C23CC4CC(CC(C4)C2)C3)cs1)c1cc2ccccc2oc1=O | > 100 µM (inactive) | > 100 µM (inactive) | 38.2 µM (inactive) | > 100 µM (inactive) | > 100 µM (inactive) | > 100 µM (inactive) | > 100 µM (inactive) | > 100 µM (inactive) | > 100 µM (inactive) | > 100 µM (inactive) | > 100 µM (inactive) | > 100 µM (inactive) | > 100 µM (inactive) | > 100 µM (inactive) | > 100 µM (inactive) | > 100 µM (inactive) | > 100 µM (inactive) | > 100 | > 100 µM (inactive) | > 100 µM (inactive)
Clc1ccc2c(NCCCCN3OC3c3ccccc3)ccnc2c1 (stereo not given) | 1.69 µM (inactive) | 13.3 µM (inactive) | 5.62 µM (inactive) | 15.8 µM (inactive) | 8.36 µM (inactive) | 3.16 µM (inactive) | 12.2 µM (inactive) | 8.07 µM (inactive) | 5.55 µM (inactive) | 2.89 µM (inactive) | 4.29 µM (inactive) | 2.86 µM (inactive) | 6.89 µM (inactive) | 4.27 µM (inactive) | 14.4 µM (inactive) | 2.13 µM (inactive) | 9.44 µM (inactive) | 10.4 | 4.75 µM (inactive) | 2.06 µM (inactive)
CC1(C)N=C(N)N=C(N)N1c1cccc(CSc2ccccc2)c1 | < 0.01 µM (active) | 3.73 µM (inactive) | 0.0301 µM (active) | 0.619 µM (active) | > 100 µM (inactive) | 0.0791 µM (active) | 1.1 µM (active) | 0.0363 µM (active) | 0.169 µM (active) | 73.1 µM (inactive) | 0.597 µM (active) | 0.794 µM (active) | 0.218 µM (active) | 2.29 µM (inactive) | 52.1 µM (inactive) | 0.103 µM (active) | 34.4 µM (inactive) | 50.4 | 6.4 µM (inactive) | 0.0588 µM (active)
OC1(c2ccccc2)CSC2=Nc3ccccc3C3CCN1N23 (stereo not given) | 20 µM (inactive) | 15.3 µM (inactive) | 26.8 µM (inactive) | 27.7 µM (inactive) | 14.6 µM (inactive) | 18.1 µM (inactive) | 6.47 µM (inactive) | 21.7 µM (inactive) | 20.9 µM (inactive) | 26.9 µM (inactive) | 15.6 µM (inactive) | 17.7 µM (inactive) | 15.5 µM (inactive) | 23.1 µM (inactive) | 11.1 µM (inactive) | 19 µM (inactive) | 19 µM (inactive) | 17.6 | 14.5 µM (inactive) | 29.3 µM (inactive)
C[C@H]1[C@H](C)CC[C@]2(C(=O)OC3OC(CO)C(O)C(O)C3O)CC[C@]3(C)C(=CC[C@@H]4[C@@]5(C)C[C@@H](O)[C@@H]6OC(=O)c7cc(O)c(O)c(O)c7-c7c(cc(O)c(O)c7O)C(=O)OC[C@]6(CO)[C@@H]5CC[C@]43C)[C@H]12 (stereo not given in full) | 17.3 µM (inactive) | > 62.4 µM (inactive) | 78 µM (inactive) | 46.8 µM (inactive) | > 100 µM (inactive) | 19.1 µM (inactive) | 29.2 µM (inactive) | > 83.4 µM (inactive) | > 91.4 µM (inactive) | 17.3 µM (inactive) | 7.1 µM (inactive) | 41.7 µM (inactive) | 26.5 µM (inactive) | 14.7 µM (inactive) | > 67.9 µM (inactive) | 12.6 µM (inactive) | > 73.3 µM (inactive) | 28.1 | 30.9 µM (inactive) | 41.2 µM (inactive)
CN(C)CC1CCCCCC(Br)C1=O (stereo not given) | 1.64 µM (inactive) | 21.3 µM (inactive) | > 70.8 µM (inactive) | 13.4 µM (inactive) | 54.8 µM (inactive) | 7.76 µM (inactive) | > 64.6 µM (inactive) | 24.2 µM (inactive) | 15.4 µM (inactive) | 4.57 µM (inactive) | 2.71 µM (inactive) | 11.5 µM (inactive) | > 83.2 µM (inactive) | 15 µM (inactive) | 17.2 µM (inactive) | 12.7 µM (inactive) | 6.79 µM (inactive) | 9.23 | 24.8 µM (inactive) | 2.05 µM (inactive)
CCn1cc(C(=O)O)c(=O)c2cc(F)c(N3CCN(CN4C(=O)/C(=N\NC(=O)c5ccncc5)c5cc(Cl)ccc54)CC3)cc21 | 2.34 µM (inactive) | 38.5 µM (inactive) | 57.3 µM (inactive) | 59.4 µM (inactive) | > 100 µM (inactive) | 32.7 µM (inactive) | > 100 µM (inactive) | 61.4 µM (inactive) | 19.6 µM (inactive) | 36 µM (inactive) | 28.2 µM (inactive) | 52.7 µM (inactive) | 44.3 µM (inactive) | 36.9 µM (inactive) | > 100 µM (inactive) | 34.3 µM (inactive) | 37.3 µM (inactive) | 31.1 | 22.9 µM (inactive) | 58.6 µM (inactive)
CN(C)c1cccc2c1C(=O)C=CC21c2ccc(N(C)C)c3c(N(C)C)ccc(c23)C(c2ccccc2)C1c1ccccc1 (stereo not given) | 7.82 µM (inactive) | 9.71 µM (inactive) | 27.5 µM (inactive) | 24.7 µM (inactive) | 6.68 µM (inactive) | 14.9 µM (inactive) | 14.5 µM (inactive) | 12.9 µM (inactive) | 13 µM (inactive) | 17.6 µM (inactive) | 17.9 µM (inactive) | 11.3 µM (inactive) | 16.3 µM (inactive) | 3.85 µM (inactive) | 28.1 µM (inactive) | 15.2 µM (inactive) | 13.1 µM (inactive) | 27.3 | 17.6 µM (inactive) | 21.3 µM (inactive)
CCOC(=O)C1=CN(C(=O)c2ccccc2)CCC1Cc1ccccc1 (stereo not given) | 12.5 µM (inactive) | 17.7 µM (inactive) | 29.2 µM (inactive) | 29 µM (inactive) | 7.87 µM (inactive) | 17 µM (inactive) | 29.1 µM (inactive) | 32.9 µM (inactive) | 18.1 µM (inactive) | 17.6 µM (inactive) | 23.1 µM (inactive) | 18.9 µM (inactive) | 34.4 µM (inactive) | 24.5 µM (inactive) | 44.6 µM (inactive) | 18 µM (inactive) | 20.6 µM (inactive) | 21.3 | 30 µM (inactive) | 23.1 µM (inactive)
COC(=O)C1=C(C(=O)OC)C2CCC1CC2=O (stereo not given) | 61.2 µM (inactive) | > 100 µM (inactive) | > 100 µM (inactive) | > 100 µM (inactive) | > 100 µM (inactive) | > 100 µM (inactive) | > 100 µM (inactive) | > 100 µM (inactive) | > 100 µM (inactive) | > 100 µM (inactive) | > 100 µM (inactive) | 50.9 µM (inactive) | > 100 µM (inactive) | > 100 µM (inactive) | > 100 µM (inactive) | > 100 µM (inactive) | > 100 µM (inactive) | 83.8 | > 100 µM (inactive) | > 100 µM (inactive)
